From patent US5936065A, “CS-1 peptidomimetics, compositions and methods of using the same” (Cytel Corporation, priority 1995, dated 1999)
Square brackets hold non-standard residues; d marks the D form. Peptide text beside a SMILES is read from it. * marks the point of attachment. Morpholide = C1CN(*)CCO1; PhAc = O=C(Cc1ccccc1)*; X6 = O=C(O)CO*

Experiments:
Jurkat T cell line = assay: Binding of Jurkat cells to frozen human RA synovial sections; format: cell-based; conditions: 10-mer at 500 μg/ml; 896.52 at its IC50 value
Protocol: Binding studies were carried out using the Jurkat T cell line and frozen RA synovial sections. […] Stimulated MOLT-4 cells behaved similarly.
The absolute value of that IC50 value is about 0.5 μmolar.

mouse = conditions: in vivo; cited from earlier work
VLA-4 receptor = target: T1, VLA-4 receptor (Homo sapiens, UniProt P05556+P13612); assay: In vitro binding assay: inhibition of binding of 51Cr-labeled Jurkat cells to solid phase-bound CS-1 compound (SEQ ID NO:1); format: cell-based
T1 construct: inflammatory cells that contain the VLA-4 receptor [Jurkat cells; host or cells: Jurkat cells (human T lymphoblastic line)
Protocol: Binding inhibition is measured here as a concentration of compound that inhibits one-half the binding between a standard number of Jurkat cells and a standard amount of CS-1 compound bound to the surface of a microtiter plate well. Those concentrations are conveniently expressed as IC50 values, smaller numbers indicating a lower concentration required to inhibit 50 percent binding and therefore greater potency. Further specifics of this assay are provided hereinafter.
Jurkat cells (ATCC TIB 152), a human T lymphoblastic line, labeled with ^51 chromium were used to assay in vitro binding inhibition provided by various compounds discussed herein.
The plates were prepared as follows: The 25-mer CS-1 compound (SEQ ID NO:1) dissolved at 0.5-1 μg/ml in a buffer of 0.1M NaHCO3 at pH 9.5 that also contained 10 μg/ml of bovine serum albumin (BSA) or a conjugate of the CS-1 compound linked to ovalbumin (CS-1-OVA) dissolved at 1-2.5 μg/ml in the same buffer was used as the substrate. Each well of the microtiter plates was coated with 50 μl of substrate or buffer alone for controls. The wells were permitted to dry out completely and were then rinsed twice with PBS at pH 7.4. Non-specific binding sites of each well were then blocked using 200 μl per well of RPMI/1 percent BSA for two hours at room temperature.
Jurkat cells (3-5×10^6 cells) were placed into a 15 ml Falcon™ round-bottom tube with a cap. The tube was centrifuged, and the extra medium was then removed.
Two hundred microliters of a ^51 Cr labeling solution were added to the centrifuged cells and maintained in contact with the cells for 90-120 minutes in a warm room. […] Longer contact times provide a greater amount of labeling but lower cell viability.
The labeled cells are washed with (i) complete medium, (ii) 1 mM EDTA/PBS and then (iii) RPM1/1 percent BSA free of serum components. The cells are centrifuged after each washing. The cells are finally resuspended in serum-free RPMI/1 percent BSA at a concentration of 1×10^6 viable cells/ml, which provides a concentration that is diluted by one-half in the assay.
Inhibitor compounds are prepared as stock solutions at 20 mg/ml in DMSO in 1.5 ml cryogenic screwcap vials, and were stored at -70° C. Using Flow™ round-bottom or V-bottom microtiter plates, the inhibitor compounds were prepared at twice the assay concentration in RPMI/1 percent BSA at 60 μl/well.
Four initial dilutions were typically used.
The ^51 Cr-labeled cells ([…] at 60 μl/well) were then admixed with the diluted compound solutions. The admixtures were maintained at room temperature (about 22° C.) for 30 minutes.
One hundred microliters of each inhibitor compound/cell admixture were transferred to the substrate-coated wells. This was done in triplicate for each dilution. The resulting plates were incubated for 30 minutes at 37° C. and then washed gently three times with RPMI/1 percent BSA at 200 μl/well. Binding was observed microscopically, particularly after the second wash.
The bound cells were then lysed by the addition of a 0.5 percent solution of sodium dodecylsulfate in water at 100 μl/well. The resulting solutions were then processed for counting and calculation of IC50 values following usual procedures.
The data of Table 1 are normalized to the binding of SEQ ID NO:3. […] Multiple assays for the same compound were averaged.

[1] = system: New Zealand white rabbits; assay: Treatment of asthmatic rabbits (house dust mite antigen challenge, crossover study); format: in vivo, rabbit; conditions: 100 mg/kg nebulizer
Protocol: Six New Zealand white rabbits were immunized with house dust mite antigen from birth through four months of age. Upon immunization, three rabbits received a single nebulizer administration of the inhibitor compound, Compound ID No. 1051.01, N-phenylacetyl-Leu-Asp-Phe-morpholinamide in aqueous 50 percent ethanol as diluent in an amount of 100 mg/kg, and the other three received diluent alone. All of the rabbits were challenged with house dust mite antigen about 15-30 minutes after administration of the compound, with those animals not receiving compound serving as controls.
Once immunized and challenged, the inflammatory state subsides to a basal level within about three weeks. The three animals used as controls were thereafter used as subjects for receipt of an inhibitor compound, and the three rabbits that initially received the compound can serve as controls.
Such a crossover study was done here. […]
Initial pulmonary function, measured by dynamic compliance (Cdyn) and lung resistance (RL) , and bronchoalveolar lavage (BAL) to obtain an effector cell count, here eosinophils, were conducted prior to administration of the compound or diluent for both portions of this crossover study. […]

BALB/c mice = assay: Adoptive transfer delayed type hypersensitivity (oxazolone) in mice; format: in vivo, mouse; conditions: versus vehicle alone; implanted pump, 24 hours
Protocol: An adoptive transfer delayed-type hypersensitivity murine model has been developed using splenic T cells primed to oxazolone. This model is described in Elices et al., Clin. Exp. Rheum., 11(Suppl. 8):577-580 (1993), whose procedures were followed here.
Thus, BALB/c mice were shaved on the belly and painted (50 μl on the belly and 5 μl on each paw) with three percent oxazolone in acetone/olive oil (4:1) at days zero and 1. At day 5, the mice were sacrificed, their spleens removed, and splenic T cells were obtained via nylon wool columns.
Normal saline or saline containing 25×10^6 /animal of the oxazolone-immune T cells were separately injected into naive mice. The mice were then challenged by painting 10 μl of 2 percent oxazolone onto one ear each. All procedures were carried out under sterile conditions and in endotoxin-free buffers.
Prior to challenge or saline injection, the mice were implanted with pumps that subcutaneously administered normal saline, normal saline containing the compound, Compound ID No. 896.52, N-phenylacetyl-Leu-Asp-Phe-D-Pro-NH2, or normal saline containing a compound with a scrambled sequence continually at 6 mg/kg/day for a 24-hour time period. The swelling diameter at the site of challenge or saline injection was measured with a microcaliper 24 hours thereafter.
An expanded study was carried out as described above except that a scrambled compound control was not used as a control for further inhibitor compounds of Table 1 with larger groups of mice. Statistical analyses were carried out versus injection of vehicle alone.

[2] = binding inhibition potency (IC50) normalized to standard compound of SEQ ID NO:3 = 1, multiple assays averaged, about one-tenth or less assigned zero

T1 sequence (P13612 34-1032): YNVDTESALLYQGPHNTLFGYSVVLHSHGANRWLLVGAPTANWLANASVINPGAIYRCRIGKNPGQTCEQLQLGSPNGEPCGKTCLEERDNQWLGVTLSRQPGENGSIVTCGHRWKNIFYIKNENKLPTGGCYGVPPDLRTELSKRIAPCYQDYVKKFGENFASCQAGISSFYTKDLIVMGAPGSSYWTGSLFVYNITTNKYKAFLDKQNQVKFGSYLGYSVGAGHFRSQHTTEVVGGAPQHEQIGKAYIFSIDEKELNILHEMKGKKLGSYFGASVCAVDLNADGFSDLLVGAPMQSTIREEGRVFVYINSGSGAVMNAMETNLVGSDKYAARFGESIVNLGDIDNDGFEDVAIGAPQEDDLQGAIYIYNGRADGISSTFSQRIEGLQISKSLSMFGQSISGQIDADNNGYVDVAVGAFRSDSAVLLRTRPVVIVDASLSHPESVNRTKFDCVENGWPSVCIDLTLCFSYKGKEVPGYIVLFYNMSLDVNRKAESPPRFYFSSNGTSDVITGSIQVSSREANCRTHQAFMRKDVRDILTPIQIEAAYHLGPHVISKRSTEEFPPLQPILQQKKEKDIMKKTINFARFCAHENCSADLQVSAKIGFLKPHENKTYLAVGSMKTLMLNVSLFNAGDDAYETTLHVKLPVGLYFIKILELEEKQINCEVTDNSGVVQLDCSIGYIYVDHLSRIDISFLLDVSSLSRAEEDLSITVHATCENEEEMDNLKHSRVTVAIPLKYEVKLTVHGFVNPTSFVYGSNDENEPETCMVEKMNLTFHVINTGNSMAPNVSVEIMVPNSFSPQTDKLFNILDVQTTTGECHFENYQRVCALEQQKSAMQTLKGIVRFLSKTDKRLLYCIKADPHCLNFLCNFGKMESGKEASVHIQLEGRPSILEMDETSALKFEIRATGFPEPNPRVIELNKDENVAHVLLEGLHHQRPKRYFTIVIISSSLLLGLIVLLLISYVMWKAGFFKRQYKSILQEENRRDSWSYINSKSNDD
T1 sequence (P05556 21-798): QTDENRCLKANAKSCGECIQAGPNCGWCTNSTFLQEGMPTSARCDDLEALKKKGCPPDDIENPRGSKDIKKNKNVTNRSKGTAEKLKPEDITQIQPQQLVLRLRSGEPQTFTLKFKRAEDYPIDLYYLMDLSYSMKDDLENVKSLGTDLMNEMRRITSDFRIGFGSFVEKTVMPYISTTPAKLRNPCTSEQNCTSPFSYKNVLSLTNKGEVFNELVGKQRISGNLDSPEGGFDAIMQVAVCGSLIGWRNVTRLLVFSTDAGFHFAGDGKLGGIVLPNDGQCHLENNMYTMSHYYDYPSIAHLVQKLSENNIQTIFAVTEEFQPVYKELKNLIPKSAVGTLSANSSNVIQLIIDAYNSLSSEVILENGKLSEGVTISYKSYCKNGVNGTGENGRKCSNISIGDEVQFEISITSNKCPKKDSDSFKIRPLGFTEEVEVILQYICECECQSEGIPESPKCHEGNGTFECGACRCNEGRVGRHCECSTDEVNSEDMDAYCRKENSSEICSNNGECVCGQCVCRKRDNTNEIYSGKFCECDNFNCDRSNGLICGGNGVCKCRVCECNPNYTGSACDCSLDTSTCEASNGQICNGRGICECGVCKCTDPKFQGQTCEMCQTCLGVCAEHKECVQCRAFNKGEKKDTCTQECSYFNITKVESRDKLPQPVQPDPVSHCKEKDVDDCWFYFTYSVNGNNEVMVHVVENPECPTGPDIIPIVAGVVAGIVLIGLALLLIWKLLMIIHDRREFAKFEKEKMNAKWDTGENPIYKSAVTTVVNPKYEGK

Molecule: CC[C@H](C)[C@H](NC(=O)[C@H](CCC(=O)O)NC(=O)[C@@H]1CCCN1C(=O)CN)C(=O)N[C@@H](CC(C)C)C(=O)N[C@@H](CC(=O)O)C(=O)N[C@H](C(=O)N1CCC[C@H]1C(=O)N[C@@H](CO)C(=O)N[C@H](C(=O)O)[C@@H](C)O)C(C)C [SEQ ID NO:3, GPEILDVPST] (H-GPEILDVPST-OH)
- inhibition of Jurkat cell adhesion to RA synovial sections (Jurkat T cell line): could be inhibited

Molecule: Arg-Gly-Asp [Arg-Gly-Asp peptide]
- inhibition of contact hypersensitivity / T lymphocyte recruitment to skin inflammatory sites (mouse): also inhibitory

Molecule: CC(C)C[C@H](NC(=O)Cc1ccccc1)C(=O)N[C@@H](CC(=O)O)C(=O)N[C@@H](Cc1ccccc1)C(=O)N1CCOCC1 [1051.01, N-phenylacetyl-Leu-Asp-Phe-morpholinamide] (PhAc-Leu-Asp-Phe-Morpholide)
- binding inhibition, in words (compared with standard 10-mer of SEQ ID NO:3 or other compounds) (VLA-4 receptor): greatest potency
- Cdyn value over six hours after challenge ([1]; FIG. 4A): stayed at about the initial value
- RL values over six hours after challenge, percent of initial value ([1]; FIG. 4B): ≤ 200%

Molecule: CC(C)C[C@H](NC(=O)Cc1ccccc1)C(=O)N[C@@H](CC(=O)O)C(=O)N[C@@H](Cc1ccccc1)C(=O)N1CCC(O)CC1 [1070.02, .phi.Ac--Leu--Asp--Phe--4-hydroxpiperidinamide]
- Percent Inhibition of post-challenge swelling, expanded study (BALB/c mice): 29%

Molecule: CC(C)C[C@H](NC(=O)Cc1ccccc1)C(=O)N[C@@H](CC(=O)O)C(=O)N[C@@H](Cc1ccccc1)C(=O)N1CCN(CC(=O)O)CC1 [1111.06, .phi.Ac--Leu--Asp--Phe--4-N(carboxy-methyl)piperazinamide]
- Relative Potency (VLA-4 receptor; [2]): 2600
- Percent Inhibition of post-challenge swelling, expanded study (BALB/c mice): 30%

Molecule: CC(C)C[C@H](NC(=O)Cc1ccccc1)C(=O)N[C@@H](CC(=O)OCC(=O)O)C(=O)N[C@@H](Cc1ccccc1)C(=O)N1CCC[C@@H]1C(N)=O [1067.02] (PhAc-LD(X6)F[dP]-NH2)
- Relative Potency (VLA-4 receptor; prodrug compounds, potency before enzymatic conversion to active form, relative to SEQ ID NO:3 = 1): .81

Molecule: CC(C)C[C@H](NC(=O)Cc1ccccc1)C(=O)N[C@@H](CC(=O)O)C(=O)N1C(=O)N(Cc2ccccc2)C(=O)[C@@H]1Cc1ccccc1 [1047.08]
- Relative Potency (VLA-4 receptor; [2]): .38

Molecule: O=C(O)C[C@H](NC1CCN(C(=O)Cc2ccccc2)CC1)C(=O)N[C@@H](Cc1ccccc1)C(=O)N1CCCC1 [992.01]
- Relative Potency (VLA-4 receptor; [2]): 0

Molecule: CC(C)C[C@H](NC(=O)Cc1ccccc1)C(=O)N[C@@H](CP(=O)(O)O)C(=O)N[C@@H](Cc1ccccc1)C(=O)N1CCCCC1 [1026.07]
- Relative Potency (VLA-4 receptor; [2]): 0
